The text below walks through data of patent publication US11648316B2, “Oral pharmaceutical composition containing pemetrexed and production method thereof” (ICURE BNP CO., LTD., priority 2017, dated 2023).

The nature of series [1]: In-vivo bioavailability of oral nanoemulsion in rats, Example 11. As to conditions: rat.
The nature of series [2]: Artificial intestinal membrane permeability (PAMPA), Example 7. It counts as in vitro ADME. As to conditions: PBS pH 6.8, pemetrexed 200 μg/ml, room temperature, 5 hr. An excerpt: The intestinal membrane permeability of pemetrexed (PMX), the mixture of hydroxypropyl beta-cyclodextrin and pemetrexed (HP-beta CD/PMX), the mixture of hydroxypropyl beta-cyclodextrin and PMX/DCK ion-binding complex (HP-beta CD/PMX/DCK), the mixture of hydroxypropyl beta-cyclodextrin, PMX/DCK ion-binding complex and poloxamer (HP-beta CD/PMX/DCK/P188) prepared in Example 4, and the w/o/w nanoemulsion including the mixture of hydroxypropyl beta-cyclodextrin, PMX/DCK ion-binding complex and poloxamer (HP-beta CD/PMX/DCK/P188) prepared in Example 5 was evaluated using an artificial intestinal membrane (PAMPA; BD Biosciences, San Jose, Calif., USA).
Each sample was diluted with phosphate-buffered saline (PBS, pH 6.8) so that the concentration of pemetrexed was 200 μg/ml, and was then added in an amount of 200 μl to the donor compartment of each well of a PAMPA plate, each acceptor compartment thereof was added with 300 μl of phosphate-buffered saline (PBS, pH 6.8), and the donor compartment and the acceptor compartment were linked and then allowed to stand at room temperature for 5 hr, after which the sample was recovered from the donor compartment and the acceptor compartment of each well of the PAMPA plate and the concentration of the permeated drug was measured as follows. […]
The effective permeability (Pe) of each drug was calculated using the following equation. […]
Background: In PAMPA a lipid-coated filter parts donor from acceptor wells.

The subject of series [3] is Caco-2 cell monolayer membrane. Description: Intestinal cell membrane permeability, Caco-2 cell monolayer, Example 9. In kind it is in vitro ADME. As to conditions: Caco-2 monolayer, apical to basolateral, pemetrexed 200 μg/ml in HBSS, 37° C., up to 5 hr. As for the experimental part:
Caco-2 cells were treated at 3×10^5 cells in each well of a 12-well Transwell (pore size: 0.4 μm, surface area: 1.12 cm^2; Corning, N.Y., USA). Dulbecco's modified Eagles medium (DMEM; Lonza, Basel, Switzerland) containing 10% fetal bovine serum (FBS; Gibco™, Thermo Fisher Scientific) and 1% penicillin/streptomycin (Gibco™) was replaced every 48 hr for 21 days to 29 days, and a Caco-2 cell membrane having a transepithelial electrical resistance (TEER) of 350 Ωcm^2 or more was used for in-vitro intestinal cell membrane permeability tests.
Specifically, the culture medium was removed, culture was performed at 37° C. for 20 min with 0.5 ml of a Hanks' balanced salt solution (HESS), HBSS was removed, and each sample was diluted with HBSS so that the concentration of pemetrexed was 200 μg/ml, after which each sample thus diluted was added in an amount of 0.5 ml to the apical compartment of the Transwell, and the basolateral compartment of the Transwell was added with 1.5 ml of HBSS, followed by culturing at 37° C. After sample treatment, 100 μl of the sample was collected from the basolateral compartment of each well at 0.5, 1, 2, 3, 4 and 5 hr and then filtered with a membrane filter, after which the concentrations of PMX and the PMX/DCK ion-binding complex that permeated the intestinal cell membrane were measured using the same HPLC system as in Example 7. […]

For series [4] the following is noted: rat, in vivo, iv, 5 mg/kg.
Method: (§1) Separately, in order to evaluate oral bioavailability, a solution of pemetrexed in distilled water was injected in an amount of 200 μl into rats through the tail vein thereof. Blood samples (200 μl) were collected at scheduled times after individual drug administrations and immediately mixed with 50 μl of a sodium citrate (3.8%) solution. The collected blood samples were centrifuged at 2,500×g and 4° C. for 15 min, pemetrexed in plasma was extracted using a solid-phase extraction (SPE) cartridge, and the concentration of pemetrexed was measured through liquid chromatography/mass spectrometry (LC/MS).
(§2) Each value represents mean±standard deviation (n=4 in each group).
Series [5] is described as follows: in vivo. The following applies: rat.
Method: as §1, §2
A short description of series [6]: Artificial intestinal membrane permeability (PAMPA) of nanoemulsion with quercetin, Example 8. The following applies: PBS pH 6.8, quercetin 400 μg/ml, room temperature, 5 hr, analyte quercetin. It counts as in vitro ADME. As to the method: The intestinal membrane permeability of pemetrexed (PMX), quercetin and the w/o/w secondary nanoemulsions including the mixture of hydroxypropyl beta-cyclodextrin, PMX/DCK ion-binding complex and poloxamer (HP-beta CD/PMX/DCK/P188) prepared in Example 5 and quercetin was evaluated using an artificial intestinal membrane (PAMPA; BD Biosciences, San Jose, Calif., USA).
Each sample was diluted with phosphate-buffered saline (PBS, pH 6.8) so that the concentration of pemetrexed was 200 μg/ml and the concentration of quercetin was 400 μg/ml, and was then added in an amount of 200 μl to the donor compartment of each well of a PAMPA plate, each acceptor compartment thereof was added with 300 μl of phosphate-buffered saline (PBS, pH 6.8), and the donor compartment and the acceptor compartment were linked and then allowed to stand at room temperature for 5 hr, after which the sample was recovered from the donor compartment and the acceptor compartment of each well of the PAMPA plate, and the concentration of the permeated drug was measured as follows.
The concentrations of PMX and PMX/DCK were analyzed by introducing 20 μl of the sample into an HPLC system with a C18 column (4.6×250 mm, 5 μm, 100 □) and allowing a mixture of purified water (pH 3.2, adjusted with phosphoric acid) and acetonitrile at 80:20 (v/v) as a mobile phase to flow at a flow rate of 1.0 ml/min. […]

Each structure is given as a SMILES string. Like-named read-outs stand apart in the source and are kept apart here.

Consider `Nc1nc2[nH]cc(CCc3ccc(C(=O)N[C@@H](CCC(=O)O)C(=O)O)cc3)c2c(=O)[nH]1` [PMX, Pemetrexed], for which the “Bioavailability (oral, compared to intravenous injection)” value in series [1] was found to be 12.0%. Also, in series [1] (iv, 10 mg/kg), the AUCinf is listed as 29,390 ± 4,844 ng · h/ml, the AUClast is recorded as 31,340 ± 5,342 ng · h/ml, the maximum concentration (Cmax) was 32,220 ± 13,900 ng/ml and the T1/2 turned out to be 0.57 ± 0.07 h. In series [1] (iv, 10 mg/kg), this compound gave a bioavailability of 100%. Further, in series [1] (po, 20 mg/kg), the AUCinf is listed as 14,300 ± 2,272 ng · h/ml, the AUClast is 7,546±938 ng · h/ml, the maximum concentration (Cmax) is on record as 1,487±332 ng/ml and the Tmax is given as 2.75 ± 3.50 h. Further, the half-life in series [1] (po, 20 mg/kg) was 7.55 ± 0.94 h. For the same compound, the “Permeability (effective permeability Pe of pemetrexed)” value in series [2] was 3.73 ± 1.15 ×10^−6, cm/s. Further, in series [3], the “Permeability (apparent permeation coefficient Papp)” value was 0.50 ± 0.09 ×10^−6, cm/s. Further, in series [4], the AUCinf was 9,414.5 ± 4,223.6 ng · h/ml, the AUClast was 9,377.5 ± 4,169.4 ng · h/ml, the Cmax is given as 15,318 ± 6100.3 ng/ml and the T1/2 is listed as 0.35 ± 0.08 h. The same compound returned a bioavailability in series [5] of 1.49%. The same compound gave a bioavailability in series [5] (iv, 5 mg/kg) of 100%. Besides, in series [5] (po, 50 mg/kg), the area under the curve AUC(0-inf) was 2560 ng·h/mL, the AUC(0-t) came out at 1390 ng·h/mL, the maximum concentration (Cmax) came out at 452 ± 221 ng/mL and the time of peak concentration (Tmax) was 0.83 ± 0.58 h. The compound also had a half-life in series [5] (po, 50 mg/kg) of 6.06 ± 1.83 h.

Consider `O=c1c(O)c(-c2ccc(O)c(O)c2)oc2cc(O)cc(O)c12` [Quercetin, quercetin], for which the “Permeability (effective permeability Pe of quercetin)” value in series [6] was 4.51 ± 5.10 ×10^−6, cm/s.

By Cmax is commonly meant the peak of the concentration-time curve. As a reminder, the bioavailability is dose-corrected exposure relative to a reference, in per cent. A high value points to good availability. What is called Tmax is the time from dosing to the highest level. The term half-life denotes the time in which the quantity being followed falls by half. Low readings indicate rapid decline, high ones slow decline. One may read the AUC(0-inf) as the area under the concentration-time curve extrapolated to infinity. Low values mean less exposure, high ones more exposure. Broadly, the AUC(0-t) is exposure summed from dosing to a finite time, without extrapolation to infinity. Low values mean less exposure, high ones more exposure.
